In general, EC50 refers to the concentration at which the effect is half-maximal. Low readings indicate higher potency in that assay, high ones lower potency in that assay. Usually Emax stands for the greatest response seen or fitted, relative to the assay's reference.

EC50 and Emax data for 17 compounds are collected here from patent publication US20200148646A1, “6-S[…] 7-S[…] ANALOGS AND THE USE THEREOF” (Purdue Pharma, L.P., priority 2013, published 2020).

What all share (assay type): biochemical
Experiment [1] addresses T1, μ-opioid receptor (Homo sapiens, UniProt P35372). The experiment can be described thus: μ-opioid receptor [35S]GTPγS functional assay, U-2 OS cells. Also on record: host or cells: U-2 OS cells. As to the method:
(§1) [^35S]GTPγS functional assays were conducted using freshly thawed μ-receptor membranes prepared in-house from a cell line expressing recombinant opioid receptor in a HEK-293, CHO or U-2 OS cell background, or purchased from a commercial source (Perkin Elmer, Shelton, Conn.; or DiscovRx, Fremont, Calif.). Assay reactions were prepared by sequentially adding the following reagents to binding buffer (100 mM NaCl, 10 mM MgCl2, 20 mM HEPES, pH 7.4) on ice (final concentrations indicated): membrane protein (0.026 mg/mL), saponin ([…]), GDP ([…]) and [^35S]GTPγS (0.20 nM; Perkin Elmer, Shelton, Conn.). The prepared membrane solution (190 l/well) was transferred to 96-shallow well polypropylene plates containing 10 μl of 20× concentrated stock solutions of the agonist [D-Ala^2, N-methyl-Phe^4 Gly-ol^5]-enkephalin (DAMGO) prepared in dimethyl sulfoxide (DMSO). Plates were incubated for 30 min at about 25° C. with shaking. Reactions were terminated by rapid filtration onto 96-well Unifilter GF/B filter plates (Perkin Elmer, Shelton, Conn.) using a 96-well tissue harvester (Perkin Elmer, Shelton, Conn.) followed by three filtration washes with 200 μl of ice-cold wash buffer (10 mM NaH2PO4, 10 mM Na2HPO4, pH 7.4). Filter plates were subsequently dried at 50° C. for 2-3 hr. BetaScint scintillation cocktail (Perkin Elmer, Shelton, Conn.) was added (50 μl/well) and plates were counted using a Packard Top-Count for 1 min/well. Data were analyzed using the sigmoidal dose-response curve fitting functions in GraphPad PRISM v. 3.0, or an in-house function for non-linear, sigmoidal dose-response curve-fitting.
(§2) μ GTP EC50 is the concentration of a compound providing 50% of the maximal response for the compound at a μ-opioid receptor.
(§3) μ GTP Emax (%) is the maximal effect elicited by a compound relative to the effect elicited by DAMGO, a standard agonist. Generally, the μ GTP Emax (%) value measures the efficacy of a compound to treat or prevent pain or other Conditions.
(§4) In TABLE 2A, activity response of certain Compounds of the Invention at the μ- and κ-opioid receptors using U-2 OS cells was determined as described above for functional assays.
For orientation: GTPγS resists hydrolysis and so accumulates on activated G proteins.

In another experiment the target is human κ opioid receptor (Homo sapiens, UniProt P41145). The experiment can be described thus: κ-opioid receptor [35S]GTPγS functional assay, U-2 OS cells. Set-up: expressed in transfected cells; host or cells: U-2 OS cells (in-house membranes). As for the experimental part:
Membranes from recombinant HEK-293 cells, CHO or U-2 OS cells expressing the recombinant human K opioid receptor (K) were prepared by lysing cells in ice cold hypotonic buffer (2.5 mM MgCl2, 50 mM HEPES, pH 7.4) (10 mL/10 cm dish) followed by homogenization with a tissue grinder/Teflon pestle. Functional [^35S]GTPγS binding assays were conducted as follows. K opioid receptor membrane solution was prepared by sequentially adding final concentrations of 0.026 μg/μl κ membrane protein (in-house), 10 μg/mL saponin, 3 μM GDP and 0.20 nM [^35S]GTPγS to binding buffer (100 mM NaCl, 10 mM MgCl2, 20 mM HEPES, pH 7.4) on ice. The prepared membrane solution (190 μl/well) was transferred to 96-shallow well polypropylene plates containing 10 μl of 20× concentrated stock solutions of agonist prepared in DMSO. Plates were incubated for 30 min at a temperature of about 25° C. with shaking. Reactions were terminated by rapid filtration onto 96-well Unifilter GF/B filter plates (Perkin Elmer, Shelton, Conn.) using a 96-well tissue harvester (Packard) and followed by three filtration washes with 200 μl ice-cold binding buffer (10 mM NaH2PO4, 10 mM Na2HPO4, pH 7.4). Filter plates were subsequently dried at 50° C. for 2-3 hours. Fifty μl/well scintillation cocktail (Perkin Elmer, Shelton, Conn.) was added and plates were counted in a Packard Top-Count for 1 min/well.
κ GTP EC50 is the concentration of a compound providing 50% of the maximal response for the compound at a κ receptor.
κ GTP Emax (%) is the maximal effect elicited by a compound relative to the effect elicited by U69,593.
as §4

In experiment [2] the target is T1, μ-opioid receptor. The experiment can be described thus: μ-opioid receptor [35S]GTPγS functional assay, HEK-293 or CHO cells. Conditions: for Emax: HEK-293 or CHO cells, relative to DAMGO. As to the method: as §1, §2, §3
In TABLE 2, activity response of certain Compounds of the Invention at the μ- and κ-opioid receptors using HEK-293 or CHO cells was determined as described above for functional assays.

T1 sequence (P35372 whole entry, species assumed): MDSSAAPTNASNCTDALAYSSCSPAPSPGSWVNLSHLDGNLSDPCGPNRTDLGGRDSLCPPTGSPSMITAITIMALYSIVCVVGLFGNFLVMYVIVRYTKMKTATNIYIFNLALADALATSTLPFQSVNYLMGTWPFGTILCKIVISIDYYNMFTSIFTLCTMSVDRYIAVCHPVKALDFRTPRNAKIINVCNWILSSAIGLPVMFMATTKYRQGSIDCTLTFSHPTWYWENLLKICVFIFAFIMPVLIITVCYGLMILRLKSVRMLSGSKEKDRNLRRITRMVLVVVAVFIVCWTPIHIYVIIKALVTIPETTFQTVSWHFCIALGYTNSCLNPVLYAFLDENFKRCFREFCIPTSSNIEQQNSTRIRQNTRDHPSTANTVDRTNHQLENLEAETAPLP
Sequence of human κ opioid receptor (P41145 whole entry): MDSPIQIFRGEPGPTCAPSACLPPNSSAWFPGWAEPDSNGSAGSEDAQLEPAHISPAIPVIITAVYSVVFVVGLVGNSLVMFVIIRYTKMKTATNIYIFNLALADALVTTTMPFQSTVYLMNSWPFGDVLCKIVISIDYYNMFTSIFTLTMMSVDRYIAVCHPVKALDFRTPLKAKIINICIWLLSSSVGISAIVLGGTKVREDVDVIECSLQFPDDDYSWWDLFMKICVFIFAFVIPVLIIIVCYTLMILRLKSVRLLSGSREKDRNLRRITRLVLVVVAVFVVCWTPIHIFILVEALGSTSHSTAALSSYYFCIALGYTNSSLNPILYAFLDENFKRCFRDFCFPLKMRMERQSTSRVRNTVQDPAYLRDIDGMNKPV

As to `CC(C)C[C@H]1C[C@@]2(O)[C@H]3Cc4ccc(O)cc4[C@@]2(CCN3CC2CC2)C[C@H]1O` [Compound 67, (4bR,6R,7S,8aS,9R)-11-(cyclopropylmethyl)-7-isobutyl-5,6,7,8,9,10-hexahydro-8aH-9,4b-(epiminoethano)phenanthrene-3,6,8a-triol], the EC50 was greater than 20 µM on μ-opioid receptor [1] and 0.0555 ± 0.0085 µM on human κ opioid receptor. Besides, the Emax on μ-opioid receptor [1] (U2-OS cells, relative to DAMGO) was determined as 2%; at human κ opioid receptor (U2-OS cells, relative to U69,593), 89.3 ± 1.67%.
As to `Oc1ccc2c(c1)[C@]13CCN(CC4CC4)[C@H](C2)[C@]1(O)C[C@H](Cc1ccccc1)[C@H](O)C3` [Compound 103, (4bR,6R,7S,8aS,9R)-7-benzyl-11-(cyclopropylmethyl)-5,6,7,8,9,10-hexahydro-8aH-9,4b-(epiminoethano)phenanthrene-3,6,8a-triol], at μ-opioid receptor [2], the EC50 was greater than 20 µM and the Emax came out at 1%.
As to `CC(C)C(=O)N[C@H]1C[C@@]2(O)[C@H]3Cc4ccc(O)cc4[C@@]2(CCN3C)C[C@H]1O` [Compound 104, N-((4bR,6R,7S,8aS,9R)-3,6,8a-trihydroxy-11-methyl-6,7,8,8a,9,10-hexahydro-5H-9,4b-(epiminoethano)phenanthren-7-yl)isobutyramide], on μ-opioid receptor [2], the EC50 came out at 15.5 ± 1.32 µM and the Emax was 23 ± 1.53%.
For `CC(C)CCC(=O)N[C@H]1C[C@@]2(O)[C@H]3Cc4ccc(O)cc4[C@@]2(CCN3C)CC1O` (stereo partly drawn) [Compound 105, 4-methyl-N-((4bR,7S,8aS,9R)-3,6,8a-trihydroxy-11-methyl-6,7,8,8a,9,10-hexahydro-5H-9,4b-(epiminoethano)phenanthren-7-yl)pentanamide] the same measures were 3.65 ± 0.294 µM and 77 ± 2.65%.
For `CC(C)CCCC(=O)N[C@H]1C[C@@]2(O)[C@H]3Cc4ccc(O)cc4[C@@]2(CCN3C)CC1O` (stereo partly drawn) [Compound 106, 5-methyl-N-((4bR,7S,8aS,9R)-3,6,8a-trihydroxy-11-methyl-6,7,8,8a,9,10-hexahydro-5H-9,4b-(epiminoethano)phenanthren-7-yl)hexanamide] the same measures were 0.635 ± 0.0437 µM and 82.3 ± 1.86%.
As to `CN(C)[C@@H]1CC[C@@]2(O)[C@H]3Cc4ccc(O)cc4[C@@]2(CCN3C)C1` [Compound 107, (4bR,6R,8aS,9R)-6-(dimethylamino)-11-methyl-5,6,7,8,9,10-hexahydro-8aH-9,4b-(epiminoethano)phenanthrene-3,8a-diol], on μ-opioid receptor [2], the EC50 worked out at 1.29 ± 0.0203 µM and the Emax was determined as 36.3 ± 1.2%.
For the compound `CN1CC[C@]23C[C@@H](O)[C@@H](NC(=O)c4ccccc4)C[C@@]2(O)[C@H]1Cc1ccc(O)cc13` [Compound 108, N-((4bR,6R,7S,8aS,9R)-3,6,8a-trihydroxy-11-methyl-6,7,8,8a,9,10-hexahydro-5H-9,4b-(epiminoethano)phenanthren-7-yl)benzamide], on μ-opioid receptor [2], a half-maximal effect (EC50) was put at 2.19 ± 0.211 µM and the Emax was 48.4 ± 0.66%.
For `CC(C)CC[C@H]1C[C@@]2(O)[C@H]3Cc4ccc(O)cc4[C@@]2(CCN3C)C[C@H]1O` [Compound 109, (4bR,6R,7S,8aS,9R)-7-isopentyl-11-methyl-5,6,7,8,9,10-hexahydro-8aH-9,4b-(epiminoethano)phenanthrene-3,6,8a-triol] the same measures were 1.87 ± 0.203 µM and 41.1 ± 3.25%.
For the compound `CN1CC[C@]23CC(O)[C@@H](CC4CCCC4)C[C@@]2(O)[C@H]1Cc1ccc(O)cc13` (stereo partly drawn) [Compound 110, (4bR,7S,8aS,9R)-7-(cyclopentylmethyl)-11-methyl-5,6,7,8,9,10-hexahydro-8aH-9,4b-(epiminoethano)phenanthrene-3,6,8a-triol], on μ-opioid receptor [2], the EC50 is greater than 20 µM and the Emax came out at 42.7 ± 32.7%.
On the same counts, the results for `CN(C)CC(=O)N[C@H]1C[C@@]2(O)[C@H]3Cc4ccc(O)cc4[C@@]2(CCN3CC2CC2)C[C@@H]1O` [Compound 111, N-((4bR,6S,7S,8aS,9R)-11-(cyclopropylmethyl)-3,6,8a-trihydroxy-6,7,8,8a,9,10-hexahydro-5H-9,4b-(epiminoethano)phenanthren-7-yl)-2-(dimethylamino)acetamide] are greater than 20 µM and 1.67 ± 0.67%.
On the same counts, the results for `CC(C)C(=O)N[C@H]1C[C@H]2[C@H]3Cc4ccc(O)cc4[C@@]2(CCN3CC2CC2)C[C@H]1O` [Compound 112, N-((4bS,6R,7S,8aR,9R)-11-(cyclopropylmethyl)-3,6-dihydroxy-6,7,8,8a,9,10-hexahydro-5H-9,4b-(epiminoethano)phenanthren-7-yl)isobutyramide] are 0.0667 ± 0.0275 µM and 8.61 ± 0.31%.
For `CCN[C@H]1C[C@@]2(O)[C@H]3Cc4ccc(O)cc4[C@@]2(CCN3C)C[C@H]1O` [Compound 113, (4bR,6R,7S,8aS,9R)-7-(ethylamino)-11-methyl-5,6,7,8,9,10-hexahydro-8aH-9,4b-(epiminoethano)phenanthrene-3,6,8a-triol] the same measures were greater than 20 µM and 3.62 ± 3.99%.
Take `CCN[C@H]1C[C@@]2(O)[C@H]3Cc4ccc(O)cc4[C@@]2(CCN3C)C[C@@H]1O` [Compound 114, (4bR,6S,7S,8aS,9R)-7-(ethylamino)-11-methyl-5,6,7,8,9,10-hexahydro-8aH-9,4b-(epiminoethano)phenanthrene-3,6,8a-triol]: at μ-opioid receptor [2], the EC50 is greater than 20 µM and the Emax is 9.47 ± 0.74%.
Take `CC(C)CCCC(=O)N[C@H]1C[C@@]2(O)[C@H]3Cc4ccc(O)cc4[C@@]2(CCN3CC2CC2)C[C@@H]1O` [Compound 115, N-((4bR,6S,7S,8aS,9R)-11-(cyclopropylmethyl)-3,6,8a-trihydroxy-6,7,8,8a,9,10-hexahydro-5H-9,4b-(epiminoethano)phenanthren-7-yl)-5-methylhexanamide]: at μ-opioid receptor [2], the EC50 was greater than 20 µM and the Emax was -1.04%.
In the case of `CN[C@H]1C[C@@]2(O)[C@H]3Cc4ccc(O)cc4[C@@]2(CCN3C)C[C@H]1O` [Compound 116, (4bR,6R,7S,8aS,9R)-11-methyl-7-(methylamino)-5,6,7,8,9,10-hexahydro-8aH-9,4b-(epiminoethano)phenanthrene-3,6,8a-triol], on μ-opioid receptor [2], a half-maximal effect (EC50) was put at 13.8 ± 0.6 µM and the Emax is 28.9 ± 1.26%.
On to `CC(C)CCCC(=O)O[C@@H]1C[C@]23CCN(CC4CC4)[C@H](Cc4ccc(O)cc42)[C@]3(O)C[C@@H]1N` [Compound 117, (4bR,6R,7S,8aS,9R)-7-amino-11-(cyclopropylmethyl)-3,8a-dihydroxy-6,7,8,8a,9,10-hexahydro-5H-9,4b-(epiminoethano)phenanthren-6-yl 5-methylhexanoate], for which, on μ-opioid receptor [2], the response was half-maximal at 0.023 ± 0.00359 µM (EC50) and the Emax was determined as 14.1 ± 1.2%.
Regarding `COc1ccc2c(c1)[C@]13CCN(C)[C@H](C2)[C@H]1[C@H](O)C[C@H](OCCO)C3` [Compound 118, (4bS,6R,8R,8aS,9R)-6-(2-hydroxyethoxy)-3-methoxy-11-methyl-6,7,8,8a,9,10-hexahydro-5H-9,4b-(epiminoethano)phenanthren-8-ol], at μ-opioid receptor [2], the EC50 was greater than 20 µM and the Emax amounted to 31.8 ± 5.76%.
